{
  "source": "patent US20020127281A1",
  "about": "“Stabilized hyrogen peroxide solutions” (priority 2000, published 2002)",
  "assay": "stabilization of peroxy compounds by the present stabilizer system",
  "type": "physicochemical",
  "description": "Trace amounts of peroxy compounds stabilized with a hydrogen peroxide stabilizer, especially diethylene triamine penta(methylene phosphonic acid) or 1-hydroxyethylidene-1,1-diphosphonic acid may be utilized as a preservative for drugs, eyewashes, or other solutions containing an active ingredient designed to be used in the ocular environment. The preservative according to the present invention may be used in the ocular environment. Furthermore, the preservative according to the present invention may be used in any ophthalmic solution as long as the active ingredient in that solution is compatible with trace amounts of the peroxy compounds. Also, virtually any peroxy compound may be used so long as it is hydrolyzed in water to produce hydrogen peroxide. Examples of such sources of hydrogen peroxide, which provide an effective resultant amount of hydrogen peroxide, include sodium perborate decahydrate, sodium peroxide and urea peroxide. […] Hydrogen peroxide concentrations from about 2 ppm to about 1000 ppm are useful in the present invention. Therefore, peroxy compounds that generate hydrogen peroxide from about 2 ppm to about 1000 ppm are useful in the present invention. More preferably, the concentration of hydrogen peroxide from is about 10 ppm to about 1000 ppm.",
  "data": [
    {"smiles": "CC(=O)OO", "note": "[peracetic acid]", "values": [
      {"measurement": "stabilization by the present system", "result": "cannot be stabilized"}
    ]}
  ]
}
